Reference: DBAASP
In brackets after ≈: the same amount, converted by molar mass. Several values for one entry are separate records, joined by “and”; a condition that tells them apart may be missing. Equal values may be shown once.

How the values were obtained:
Assay in all cases: ≥ marks a high value that may be exact or a test limit, other limits are often not marked, values filed in µg/mL are converted to µM
[1] = tested on: Penicillium expansum
[2] = tested on: Aspergillus niger
[3] = tested on: Candida albicans CGMCC 2.2086
[4] = tested on: Candida albicans
[5] = tested on: Candida krusei CGMCC 2.1857
[6] = tested on: Staphylococcus aureus ATCC 43300
[7] = tested on: Salmonella enterica subsp. enterica serovar Typhimurium ATCC 14028
[8] = tested on: Candida parapsilosis CGMCC 2.3989
[9] = tested on: Staphylococcus aureus ATCC 29213
[10] = tested on: Candida tropicalis CGMCC 2.1975
[11] = tested on: Salmonella enterica subsp. enterica serovar Pullorum ATCC 7913
[12] = tested on: Escherichia coli 1005
[13] = tested on: Staphylococcus epidermidis ATCC 12228
[14] = tested on: Staphylococcus aureus ATCC 25923
[15] = tested on: Escherichia coli ATCC 25922
[16] = tested on: Staphylococcus aureus ATCC 12600
[17] = tested on: Candida albicans ATCC 14053
[18] = tested on: Escherichia coli ATCC 11775
[19] = tested on: Micrococcus luteus ATCC 49732
[20] = tested on: Escherichia coli K12 MG1655
[21] = tested on: Staphylococcus epidermidis
[22] = tested on: Escherichia coli UTI89

SMILES	MIC [4] [µM]	MIC [5] [µM]	MIC [6] [µM]	MIC [7] [µM]	MIC [8] [µM]	MIC [9] [µM]	MIC [10] [µM]	MIC [11] [µM]	MIC [12] [µM]	MIC [13] [µM]	MIC [14] [µM]	further results
CC(C)C[C@H](NC(=O)[C@H](Cc1ccccc1)NC(=O)[C@H](CCCN=C(N)N)NC(=O)[C@H](CCCN=C(N)N)NC(=O)[C@H](C)NC(=O)[C@H](Cc1c[nH]c2ccccc12)NC(=O)[C@H](Cc1c[nH]c2ccccc12)NC(=O)[C@H](C)NC(=O)[C@H](CCCN=C(N)N)NC(=O)[C@H](Cc1ccccc1)NC(=O)[C@H](Cc1ccccc1)NC(=O)[C@H](CCCCN)NC(=O)[C@@H](N)CCCCN)C(=O)N[C@@H](CCCCN)C(N)=O [KKFFRAWWARRFLK]	–	–	–	–	–	–	–	–	–	–	–	MIC [1]: 6.44 µM (≈ 12.5 µg/mL); MIC [2]: 6.44 µM (≈ 12.5 µg/mL)
NC(=O)[C@H](CCCN=C(N)N)NC(=O)[C@H](CCCN=C(N)N)NC(=O)[C@H](Cc1c[nH]c2ccccc12)NC(=O)[C@H](CCCN=C(N)N)NC(=O)[C@H](Cc1c[nH]c2ccccc12)NC(=O)[C@H](Cc1c[nH]c2ccccc12)NC(=O)[C@H](Cc1c[nH]c2ccccc12)NC(=O)[C@H](CCCN=C(N)N)NC(=O)[C@H](Cc1c[nH]c2ccccc12)NC(=O)[C@H](CCCN=C(N)N)NC(=O)[C@@H](N)CCCN=C(N)N [RRWRWWWRWRR]	4 (≈ 7.54 µg/mL)	2 (≈ 3.77 µg/mL)	4 (≈ 7.54 µg/mL)	4 (≈ 7.54 µg/mL)	8 (≈ 15.1 µg/mL)	2 (≈ 3.77 µg/mL)	2 (≈ 3.77 µg/mL)	2 (≈ 3.77 µg/mL)	4 (≈ 7.54 µg/mL)	4 (≈ 7.54 µg/mL)	4 (≈ 7.54 µg/mL)	MIC [3]: 4 µM and 8 µM
NC(=O)[C@H](CCCN=C(N)N)NC(=O)[C@H](Cc1ccccc1)NC(=O)[C@H](CCCN=C(N)N)NC(=O)[C@H](Cc1ccccc1)NC(=O)[C@H](Cc1ccccc1)NC(=O)[C@H](Cc1ccccc1)NC(=O)[C@H](CCCN=C(N)N)NC(=O)[C@H](Cc1ccccc1)NC(=O)[C@@H](N)CCCN=C(N)N [RFRFFFRFR]	5.66 (≈ 7.79 µg/mL)	4 (≈ 5.51 µg/mL)	4 (≈ 5.51 µg/mL)	4 (≈ 5.51 µg/mL)	16 (≈ 22 µg/mL)	4 (≈ 5.51 µg/mL)	2 (≈ 2.76 µg/mL)	2 (≈ 2.76 µg/mL)	4 (≈ 5.51 µg/mL)	4 (≈ 5.51 µg/mL)	4 (≈ 5.51 µg/mL)	MIC [15]: 4 µM and > 2 µM
CC(C)[C@H](NC(=O)[C@H](C)NC(=O)[C@@H](NC(=O)CNC(=O)[C@H](C)N)[C@@H](C)O)C(=O)N[C@@H](Cc1ccccc1)C(=O)N[C@@H](CCCCN)C(=O)O [AGTAVFK]	–	–	–	–	–	–	–	–	–	–	–	MIC [16]: ≥ 107 µM; MIC [17]: ≥ 321 µM; MIC [18]: ≥ 107 µM; MIC [19]: ≥ 963 µM
CC[C@H](C)[C@H](NC(=O)[C@H](CCCCN)NC(=O)[C@H](CCC(N)=O)NC(=O)[C@H](Cc1c[nH]c2ccccc12)NC(=O)[C@@H](NC(=O)[C@H](CCCCN)NC(=O)[C@@H](N)CCCCN)[C@@H](C)CC)C(=O)N[C@@H](CCCCN)C(=O)N[C@@H](CCCN=C(N)N)C(=O)N[C@@H](Cc1ccccc1)C(=O)N[C@@H](Cc1ccccc1)C(=O)N[C@@H](CCC(N)=O)C(=O)N[C@@H](CCCCN)C(=O)N[C@@H](CC(C)C)C(=O)O [KKIWQKIKRFFQKL]	–	–	–	50 (≈ 94.6 µg/mL)	–	–	–	–	–	–	–	MIC [20]: ≥ 50 µM; MIC [21]: 7.5 µM (≈ 14.2 µg/mL); MIC [22]: ≥ 50 µM
